Source: US7803764B2, “Amphipathic glycopeptides” (The Arizona Board of Regents on Behalf of the University of …, priority 2004, dated 2010)
Entries after “also recorded” stand apart in the source; their conditions may differ.

Experiments:
[1] = blood-brain barrier uptake / penetration; conditions: mice
[2] = in vivo antinociception after i.c.v. administration; set-up: species or system mice; conditions: i.c.v., mice, antinociception
δ opioid receptor = δ opioid receptor (Homo sapiens, UniProt P41143); assay: opioid receptor binding, δ receptor
[3] = helicity by circular dichroism; format: physicochemical
Description: Circular Dichroism. All of the circular dichroism experiments were carried out on Aviv Associates model 60DS using an Endcal Model RTE4DD water circulator as a temperature-control vehicle. The instrument was calibrated by using d-10-camphorsulphonic acid. The spectra were recorded between 200 and 250 nm by using the continuous mode with a 1.5 nm bandwidth, a three second response and a scan step of 0.5 nm in a cell with a path length of 0.1 cm. Three or five scans were accumulated and averaged for each spectrum. Glycopeptide stock solutions were prepared by weighing the required amount, using Cahn/Ventron Instruments Model 21 automatic analytical electrobalance, to make 1 mL of a 0.5-1.0 mM solution and the pH was adjusted to the desired value. Samples were prepared by diluting the stock solution to 70-80 μM. All observed spectra were baseline-subtracted and smoothed by adjacent average of 5 points using Microcal Origin Ver. 5.0 software (Microcal Software Inc, USA). The molar ellipticities were determined using the formula [θ]=[θ]obs·(MRW)/10·l·C, where [θ]obs observed ellipticity in millidegrees, MRW is the mean residue weight, l is the cell path length in centimeters and C is the glycopeptide concentration in mg/mL. The percent α-helicity was determined by using the formula % helix=[θ]n→π*/−40,000 (1−2.5/n)·100, where n represents the number of amide bonds (including the C-terminal amide) in the glycopeptide and [θ]n→π** is molar ellipticity of n→π* transition band at 222 nm.^55
Conformational Analysis by CD. Circular dichroism (CD) is a powerful and simple tool for identifying secondary structure in both peptides and proteins.^64 All the peptides were subjected to CD analysis in H2O, TFE-H2O mixtures, SDS micelles and phospholipid bicelles. In H2O, a negative band near 200 nm is observed that arises from the π→π* electronic transition and is typical of random coil peptides. […] This behavior is explained as nascent helices.^65 In these nascent helices, helix CD signals could be induced by the addition of TFE.^66 All the glycopeptides gave an increased helix CD signal in TFE. The percentage of helicity increases as TFE concentration increases, but reached a maximum at 30% TFE. The increase in helicity in TFE can be attributed to decreased competition by H2O for hydrogen bonding to the backbone amides. […] In the presence of SDS micelles and anionic bicelles, the band at 200 nm underwent a red shift (higher value) and an additional shoulder appears around 222 nm as a result of the n→π* transition. […] The negative maxima at 222 nm (n→π* transition band) is used to calculate the helical content of polypeptides and proteins. The accepted value for a peptide that is 100% helical is approximately −35,000. It was observed that changes in amplitude of the bands up to 30% depend on length of helix.^67 The amplitude increases as α-helical chain length increases. Therefore, one has to consider the importance of chain-length dependence of the α-helix CD in the quantitative treatment of helix content in proteins and polypeptides. The percentage of helicity is independent of SDS concentration and pH (data not shown). In the presence of zwitterionic bicelles all of the glycopeptides yielded CD spectra similar to that observed in H2O, but anionic bicelles forced them to become more helical. The intensities of the [θ]π→π* band and the [θ]n→π* band are expected to be almost equal for a perfect α-helical peptide. […] A modest blue shift and reduced intensity for the [θ]n→π* transition bands are observed for all the glycopeptides in TFE. […] The glycopeptides 9 (Pro/Glc) and 12 (Pro/Lactose), which differ only by the sugar moiety attached, adopt perfect helices in the presence of SDS micelles and in anionic bicelles. The disaccharide increased the percentage of helicity in all the solvents, relative to the monosaccharide. […] It is remarkable to note that a single amino acid mutation at position 6 produced profound changes in the CD spectra. […]

μ opioid receptor = μ opioid receptor (Homo sapiens, UniProt P35372); assay: opioid receptor binding, μ receptor
[4] = Plasmon-waveguide resonance (PWR) binding to lipid bilayer; conditions: egg PC bilayer, 25° C., read-out: dissociation constant KD for lipid bilayer
Description: Plasmon-waveguide resonance (PWR) spectroscopy. The PWR instrument used for these experiments was Aviv Beta prototype version device obtained from Proterion Corp. (Piscataway, N.J.) having a spectral resolution of 1 millidegree. Self-assembled so lid-supported lipid membranes were prepared according to the method used for the formation of freely suspended lipid bilayers.^62 This involves spreading a small amount of lipid solution across an orifice in a Teflon sheet that separates the thin dielectric film (SiO2) from the aqueous phase. The hydrophilic surface of hydrated SiO2 attracts the polar groups of the lipid molecules, thus inducing an initial orientation of the lipid molecules, with the hydrocarbon chains pointing toward the droplet of excess lipid solution. The next steps of bilayer formation, induced by adding aqueous buffer to the sample compartment of the PWR cell, involve a thinning process and the formation of a plateau-Gibbs border of lipid solution that anchors the membrane to the Teflon spacer. In the present experiments, the lipid films were formed from a solution containing 5 mg/ml egg phosphatidylcholine (PC) in squalene/butanol/methanol (0.05:9.5:0.5, v/v). […] Aliquots of the glycosylated peptides, dissolved in deionized water, were injected stepwise in the PWR cell sample and the signal monitored until equilibrium was reached (PWR signal steady). […]

[5] = helicity by NMR αCH chemical shift index; format: physicochemical
Description: NMR Spectroscopy. All NMR spectra were recorded on a Bruker DRX600 600 MHz spectrometer. Glycopeptide concentration for the NMR experiments varied from 2-3 mM. The glycopeptides were prepared in TFE-water solution by dissolving the peptide in 0.6 ml solution of a premixed 30% TFE-water mixture. The micelle samples were prepared by dissolving the glycopeptide and 100 equivalent of perdeuterated SDS in 0.6 ml of H2O/D2O (9:1 ratio by volume). Bicelles were produced from deuterated phospholipids. The zwitterionic bicelles were made by mixing the short chain phospholipid dihexanoyl-sn-glycero-3-phosphatidylcholine-d22 (DHPC) and the long chain 1,2-dimyristoyl-sn-glycero-3-phosphatidylcholine-d54 (DMPC) in the molar ratio of 2:1 in H2O. The […] were prepared by substituting 10 mol % of 1,2-dimyristoyl-sn-glycero-3-phospho-1-glycerol-d54 (DMPG) for DMPC. The glycopeptide to bicelle ratio was 1:25. After the glycopeptide was added to the bicelle solution, the system was submitted to a series o f three freeze/thaw/slight vortex shaking cycles. The pH of the each sample was adjusted to 4.5 by using DCl or NaOD as necessary. TSP (3-(trimethylsilyl)-d4-propionic acid) was added as an internal standard. The experiments in F3CCD2OD/H2O mixtures were at 293 K and for experiments in micelles/bicelles were at 298 or 311 K. Two-dimensional double quantum filtered correlation (DQF-COSY), rotating-frame Overhauser enhancement^56 (ROESY), Nuclear Overhauser enhancement^57 (NOESY), and total correlation spectra^58 (TOCSY) were acquired using standard pulse sequences and processed using XWINNMR (Bruker Inc) and FELIX2000 (Accelrys Inc, San Diego, Calif.), Mixing times for TOCSY spectra were either 80 or 100 ms. Mixing times for ROESY spectra were 150 or 250 ms, and for NOESY spectra were 200 or 300 ms. All experiments were 750 increments in t1, 16/32/64 scans each, 1.5 s relaxation delay, size 2 or 4K, and the spectral processing was with shifted sine bell window multiplications in both dimensions.
αCH Chemical Shift Index. […] At this point there is no accepted random coil αCH values for glycosylated serine, CSI values for this position are uncertain. The conformational shift values for all solvents were obtained using the random coil values described by Wright and co-workers.^72 Although, these reference shifts were obtained at pH=5.0 at 4.2° C., they appear to be very insensitive to the conditions, as very small deviations (±0.04) were observed when random coil values are obtained at pH=7.0 at 35° C. by Wuthrich and co-workers.^68 The quantification of secondary structure based on αCH chemical shifts is neglected in the literature because various contributions cannot be strictly accounted for, such as electrostatic effects, ring current shifts, and other magnetic anisotropies. However, it is possible to make qualitative comparison of helical content between closely related (glyco)peptides. Since the 3rd generation glycopeptides differ by only one amino acid at position 6, the helical content was obtained based on the αCH chemical shift values (Table 3). The method described by Gierasch and co-workers^69a was used. First, the average conformational shift was calculated for each glycopeptide by adding all upfield shifts in the helical regions and dividing by the total number of peptide bonds. Then, to obtain the overall helical content for each glycopeptide, the average conformational shift was divided by 0.35 ppm, which was assigned for 100% helicity. Since, there are no random coil values available for β-Alanine and glycosylated serine residues, they were not included in the calculation. The helicogenic Aib residue lacks an α-proton, and there was no correction included in the calculation for the helicity provided by Aib residue. The helical content obtained by this method correlated with the helical content obtained by CD. […]

δ opioid receptor, sequence (P41143 whole entry): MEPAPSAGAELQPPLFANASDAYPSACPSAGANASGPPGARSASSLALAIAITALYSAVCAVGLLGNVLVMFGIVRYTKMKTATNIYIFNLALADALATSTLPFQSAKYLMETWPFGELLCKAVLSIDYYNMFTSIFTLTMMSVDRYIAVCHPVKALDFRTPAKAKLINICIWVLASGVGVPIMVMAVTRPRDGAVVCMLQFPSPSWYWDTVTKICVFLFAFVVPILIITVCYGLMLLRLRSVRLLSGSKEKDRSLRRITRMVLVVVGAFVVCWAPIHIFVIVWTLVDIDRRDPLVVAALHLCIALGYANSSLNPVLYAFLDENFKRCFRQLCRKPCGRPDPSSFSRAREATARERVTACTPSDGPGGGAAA
μ opioid receptor, sequence (P35372 whole entry): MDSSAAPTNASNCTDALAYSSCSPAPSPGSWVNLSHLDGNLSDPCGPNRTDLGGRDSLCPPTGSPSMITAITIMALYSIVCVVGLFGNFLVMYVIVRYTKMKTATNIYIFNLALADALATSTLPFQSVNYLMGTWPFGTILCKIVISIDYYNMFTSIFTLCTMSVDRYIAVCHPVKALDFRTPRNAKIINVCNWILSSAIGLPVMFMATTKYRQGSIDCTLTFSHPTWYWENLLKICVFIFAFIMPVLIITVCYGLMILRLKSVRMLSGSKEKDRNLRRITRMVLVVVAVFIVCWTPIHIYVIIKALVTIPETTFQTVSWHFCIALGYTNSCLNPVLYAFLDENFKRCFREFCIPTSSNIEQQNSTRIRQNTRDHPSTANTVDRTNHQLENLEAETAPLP

For `CC(C)C[C@H](NC(=O)[C@H](CO[C@@H]1O[C@H](CO)[C@@H](O)[C@H](O)[C@H]1O)NC(=O)[C@H](CCCCN)NC(=O)[C@H](CC(C)C)NC(=O)[C@H](C)NC(=O)[C@H](CCCCN)NC(=O)[C@H](CCC(=O)O)NC(=O)C(C)(C)NC(=O)[C@H](CC(C)C)NC(=O)[C@H](CC(N)=O)NC(=O)CNC(=O)CNC(=O)[C@H](CC(C)C)NC(=O)[C@H](Cc1ccccc1)NC(=O)CNC(=O)[C@H](NC(=O)[C@@H](N)Cc1ccc(O)cc1)[C@H](C)O)C(N)=O` (relative stereo) [Glycopeptide 11, YtGFLGGNLBEKALKS*L], the BBB uptake [1] was 0.002 microliters per min per gram of cortex, the “blood brain barrier penetration (in words)” value [1] was “did not; also recorded: low BBB penetration rates” and the A50 i.c.v. [2] was 0.030 nmol. For the same compound, the IC50 (δ opioid receptor) was 0.0325 µM, the “% α-helicity by CD” value ([3]; solvent Bicelle A (anionic bicelles)) was 17% and the “% α-helicity by CD” value ([3]; solvent H2O) was over 1%. For the same compound, the “% α-helicity by CD” value ([3]; solvent SDS micelles) was 17%, the “% α-helicity by CD” value ([3]; solvent TFE) was 18% and the IC50 (μ opioid receptor) was 0.053 µM. For the same compound, the Kd [4] was 30 µM, the “% α-helicity by NMR” value ([5]; solvent H2O) was 19% and the “% α-helicity by NMR” value ([5]; solvent SDS micelles) was 39%. For the same compound, the “% α-helicity by NMR” value ([5]; solvent TFE) was 28%.
